One assay concerns the target Tryptase (Homo sapiens, UniProt Q9BZJ3+Q15661+Q9NRR2). Kind of assay: Inhibition of human tryptase. The format is protein assay.
Assay [1] deals with Urokinase-type plasminogen activator (Homo sapiens, UniProt P00749). The experiment in a line: Compound was tested for inhibition of human urokinase-type plasminogen activator.
In a further assay the target is Serine protease 1 (Homo sapiens, UniProt P07477). The experiment in a line: Compound was tested for inhibition of human trypsin. Set-up: reference not given here.
Sequence of Serine protease 1 (P07477 whole entry): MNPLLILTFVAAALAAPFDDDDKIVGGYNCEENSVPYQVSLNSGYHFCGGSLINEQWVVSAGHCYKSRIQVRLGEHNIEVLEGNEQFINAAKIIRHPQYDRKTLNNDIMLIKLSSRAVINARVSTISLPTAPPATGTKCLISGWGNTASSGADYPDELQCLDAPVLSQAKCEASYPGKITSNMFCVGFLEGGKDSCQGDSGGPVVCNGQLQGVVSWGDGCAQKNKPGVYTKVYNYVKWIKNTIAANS

Structures are written as SMILES. Several values for one entry are separate records, joined by “and”; a condition that tells them apart may be missing. Identical values can stand only once.

As usually defined, the IC50 is the concentration needed to halve the response being measured. As to `Cc1ccc(CN)cc1NC(=O)CN1CCCCC(NC(=O)c2ccc(-c3ccccc3)cc2)C1=O` (centres undefined), at Tryptase, the IC50 was determined as 0.074 µM. In addition, the selectivity ratio (in assay [1]; on Serine protease 1) was more than 450 each time.

`Cc1ccc(-c2ccc(C(=O)NC3CCCCN(CC(=O)Nc4cccc(CN)c4)C3=O)cc2)cc1` (centres undefined) had an IC50 against Tryptase of 1.3 µM.

`NCCCCCNC(=O)CN1CCCCC(NC(=O)c2ccc(-c3ccccc3)cc2)C1=O` (centres undefined) displayed an IC50 against Tryptase of 12 µM.

With `NC1CCCc2ccc(NC(=O)CN3CCCCC(NC(=O)c4ccc(-c5ccccc5)cc4)C3=O)cc21` (centres undefined), the IC50 at Tryptase is more than 33 µM.

Molecule `NCc1ccccc1NC(=O)CN1CCCCC(NC(=O)c2ccc(-c3ccccc3)cc2)C1=O` (centres undefined) had an IC50 against Tryptase of more than 33 µM.

On Tryptase, `NCc1cccc(NC(=O)CN2CCCCC(NC(=O)Cc3ccc(-c4ccccc4)cc3)C2=O)c1` (centres undefined) returned a half-maximal inhibitory concentration (IC50) of 5.2 µM.

Consider `NCC1CCC(NC(=O)CN2CCCCC(NC(=O)c3ccc(-c4ccccc4)cc3)C2=O)CC1` (centres undefined), for which the IC50 at Tryptase worked out at 12 µM.

Consider `CCN(CC)Cc1cccc(NC(=O)CN2CCCCC(NC(=O)c3ccc(-c4ccccc4)cc3)C2=O)c1` (centres undefined), for which, at Tryptase, the half-maximal inhibitory concentration (IC50) was more than 33 µM.

The molecule `NCc1cccc(NC(=O)CN2CCCCC(NC(=O)COc3ccc4ccccc4c3)C2=O)c1` (centres undefined) gave an IC50 on Tryptase of 4.6 µM.

As to `O=C(CN1CCCCC(NC(=O)c2ccc(-c3ccccc3)cc2)C1=O)Nc1ccc2c(c1)CNCC2` (centres undefined), on Tryptase, the IC50 is more than 33 µM.

On Tryptase, `NCCCCCCNC(=O)CN1CCCCC(NC(=O)c2ccc(-c3ccccc3)cc2)C1=O` (centres undefined) registered an IC50 of more than 33 µM.

`Nc1ccc(CNC(=O)CN2CCCCC(NC(=O)c3ccc(-c4ccccc4)cc3)C2=O)cc1` (centres undefined) gave an IC50 against Tryptase of more than 33 µM.

Regarding `NCc1ccc(NC(=O)CN2CCCCC(NC(=O)c3ccc(-c4ccccc4)cc3)C2=O)cc1` (centres undefined), the IC50 at Tryptase was 3.6 µM.

`NCCCCNC(=O)CN1CCCCC(NC(=O)c2ccc(-c3ccccc3)cc2)C1=O` (centres undefined): at Tryptase, the IC50 is more than 33 µM.

Regarding `CNCc1cccc(NC(=O)CN2CCCCC(NC(=O)c3ccc(-c4ccccc4)cc3)C2=O)c1` (centres undefined), the IC50 on Tryptase is more than 33 µM.

Take `NCc1cccc(NC(=O)CN2CCCCC(NC(=O)c3cnc4ccccc4c3)C2=O)c1` (centres undefined): the IC50 against Tryptase is 15 µM.

`O=C(CN1CCCCC(NC(=O)c2ccc(-c3ccccc3)cc2)C1=O)NCC1CCNCC1` (centres undefined) returned an IC50 on Tryptase of more than 33 µM.

For `CCc1ccc(C(=O)NC2CCCCN(CC(=O)Nc3cccc(CN)c3)C2=O)cc1` (centres undefined), the IC50 on Tryptase is 4.6 µM.

Regarding `NCc1cccc(CNC(=O)CN2CCCCC(NC(=O)c3ccc(-c4ccccc4)cc3)C2=O)c1` (centres undefined), on Tryptase, the IC50 is 13 µM.

As to `NCc1cccc(NC(=O)CN2CCCCC(NC(=O)c3ccc(Cc4ccccc4)cc3)C2=O)c1` (centres undefined), the IC50 at Tryptase was determined as 0.98 µM.

Take `CCc1ccc(-c2ccc(C(=O)NC3CCCCN(CC(=O)Nc4cccc(CN)c4)C3=O)cc2)cc1` (centres undefined): the IC50 on Tryptase came out at 2.9 µM.

At Tryptase, `NCc1cccc(NC(=O)CN2CCCCC(NC(=O)CCCCc3ccccc3)C2=O)c1` (centres undefined) yielded an IC50 of 2.9 µM.

For `NCc1cccc(NC(=O)CN2CCCCC(NC(=O)c3ccc(-c4ccccc4)cc3)C2=O)c1` (centres undefined), the IC50 against Tryptase was 0.25 µM and > 0.25 µM. In addition, the selectivity ratio (in assay [1]; at Serine protease 1) was more than 130 throughout.

`Nc1cccc(CNC(=O)CN2CCCCC(NC(=O)c3ccc(-c4ccccc4)cc3)C2=O)c1` (centres undefined): on Tryptase, the half-inhibitory concentration (IC50) is more than 33 µM.

On to `NCc1cccc(NC(=O)CN2CCCCC(NC(=O)CC(c3ccccc3)c3ccccc3)C2=O)c1` (centres undefined), for which the IC50 against Tryptase was 0.2 µM. For the same molecule, the selectivity ratio (in assay [1]; at Serine protease 1) was more than 170 throughout.

For `NCc1cccc(NC(=O)CN2CCCCC(NC(=O)c3ccc(-c4ccc(Cl)c(Cl)c4)cc3)C2=O)c1` (centres undefined), on Tryptase, the IC50 worked out at 2.1 µM.

Turning to `NCc1ccc(Cl)c(NC(=O)CN2CCCCC(NC(=O)c3ccc(-c4ccccc4)cc3)C2=O)c1` (centres undefined), the IC50 on Tryptase is 0.038 µM. In addition, the selectivity ratio in assay [1] was more than 870; on Serine protease 1, 360.

On Tryptase, `NC(=O)c1cccc(NC(=O)CN2CCCCC(NC(=O)c3ccc(-c4ccccc4)cc3)C2=O)c1` (centres undefined) had an IC50 of more than 33 µM.

Take `NCCc1ccc(NC(=O)CN2CCCCC(NC(=O)c3ccc(-c4ccccc4)cc3)C2=O)cc1` (centres undefined): the IC50 against Tryptase came to 11 µM.

Turning to `COc1ccc(CN)cc1NC(=O)CN1CCCCC(NC(=O)c2ccc(-c3ccccc3)cc2)C1=O` (centres undefined), on Tryptase, the IC50 was 0.89 µM.

As for `NCc1cccc(NC(=O)CN2CCCCC(NC(=O)c3ccc(C4CCCCC4)cc3)C2=O)c1` (centres undefined), the IC50 against Tryptase was 0.98 µM.

These data come from ChEMBL document CHEMBL1139445, “Synthesis of potent and selective 2-azepanone inhibitors of human tryptase” (Bioorg Med Chem Lett, 2004).
